In BindingDB's records for patent US11547697 (Millennium Pharmaceuticals, 2023) one finds IC50 data, which are given here for 39 compounds.

Bounds are passed on as bounds.

Common to all, as to assay: Inhibition Assay of PI3K
The target of assay [1] is T1, Phosphatidylinositol 4,5-bisphosphate 3-kinase catalytic subunit delta isoform (Homo sapiens, UniProt O00329).
T1 sequence (O00329 whole entry): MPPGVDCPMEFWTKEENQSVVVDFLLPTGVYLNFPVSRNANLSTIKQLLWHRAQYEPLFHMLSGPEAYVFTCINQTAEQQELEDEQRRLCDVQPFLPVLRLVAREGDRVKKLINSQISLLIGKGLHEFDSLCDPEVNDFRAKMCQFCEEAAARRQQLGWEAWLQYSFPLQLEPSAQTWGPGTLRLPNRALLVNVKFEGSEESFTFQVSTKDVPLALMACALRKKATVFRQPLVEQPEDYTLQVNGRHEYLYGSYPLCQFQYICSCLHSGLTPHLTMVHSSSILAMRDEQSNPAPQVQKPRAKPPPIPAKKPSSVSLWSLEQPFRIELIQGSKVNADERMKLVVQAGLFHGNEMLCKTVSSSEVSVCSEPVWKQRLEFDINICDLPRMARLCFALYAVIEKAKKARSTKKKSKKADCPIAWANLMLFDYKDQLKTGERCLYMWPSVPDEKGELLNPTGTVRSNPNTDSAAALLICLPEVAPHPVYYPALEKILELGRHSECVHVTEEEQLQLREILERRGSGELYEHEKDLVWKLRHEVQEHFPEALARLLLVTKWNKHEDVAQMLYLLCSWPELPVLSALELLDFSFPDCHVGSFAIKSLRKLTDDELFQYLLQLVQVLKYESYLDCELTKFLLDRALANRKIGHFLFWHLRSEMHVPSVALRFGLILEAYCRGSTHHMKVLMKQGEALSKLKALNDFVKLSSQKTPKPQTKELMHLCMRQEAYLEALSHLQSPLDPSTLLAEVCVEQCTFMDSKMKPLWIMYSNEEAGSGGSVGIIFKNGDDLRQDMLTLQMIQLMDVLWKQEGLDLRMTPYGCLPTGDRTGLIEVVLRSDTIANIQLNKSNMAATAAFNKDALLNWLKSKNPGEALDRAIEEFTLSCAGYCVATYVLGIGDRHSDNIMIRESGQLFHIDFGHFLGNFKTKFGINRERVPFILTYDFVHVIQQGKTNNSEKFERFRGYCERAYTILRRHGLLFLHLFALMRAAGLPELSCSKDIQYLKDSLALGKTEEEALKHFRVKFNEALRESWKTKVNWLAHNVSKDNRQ
Description: (§1) An exemplary system is PI 3-Kinase (human) HTRF Assay from Upstate. […] Briefly, the assay is a time resolved FRET assay that indirectly measures PIP3 product formed by the activity of a PI3-K. The kinase reaction is performed in a microtitre plate (e.g., a 384 well microtitre plate). The total reaction volume is approximately 20 ul per well. In the first step, each well receives 2 ul of test compound in 20% dimethylsulphoxide resulting in a 2% DMSO final concentration. Next, approximately 14.5 ul of a kinase/PIP2 mixture (diluted in 1× reaction buffer) is added per well for a final concentration of 0.25-0.3 ug/ml kinase and 10 μM PIP2. The plate is sealed and incubated for 15 minutes at room temperature. To start the reaction, 3.5 ul of ATP (diluted in 1× reaction buffer) is added per well for a final concentration of 10 μM ATP. The plate is sealed and incubated for 1 hour at room temperature. The reaction is stopped by adding 5 ul of Stop Solution per well and then 5 ul of Detection Mix is added per well. The plate is sealed, incubated for 1 hour at room temperature, and then read on an appropriate plate reader.

The target in assay [2] is Phosphatidylinositol 4,5-bisphosphate 3-kinase catalytic subunit beta isoform (Homo sapiens, UniProt P42338).
Chain of Phosphatidylinositol 4,5-bisphosphate 3-kinase catalytic subunit beta isoform (P42338 whole entry, canonical isoform): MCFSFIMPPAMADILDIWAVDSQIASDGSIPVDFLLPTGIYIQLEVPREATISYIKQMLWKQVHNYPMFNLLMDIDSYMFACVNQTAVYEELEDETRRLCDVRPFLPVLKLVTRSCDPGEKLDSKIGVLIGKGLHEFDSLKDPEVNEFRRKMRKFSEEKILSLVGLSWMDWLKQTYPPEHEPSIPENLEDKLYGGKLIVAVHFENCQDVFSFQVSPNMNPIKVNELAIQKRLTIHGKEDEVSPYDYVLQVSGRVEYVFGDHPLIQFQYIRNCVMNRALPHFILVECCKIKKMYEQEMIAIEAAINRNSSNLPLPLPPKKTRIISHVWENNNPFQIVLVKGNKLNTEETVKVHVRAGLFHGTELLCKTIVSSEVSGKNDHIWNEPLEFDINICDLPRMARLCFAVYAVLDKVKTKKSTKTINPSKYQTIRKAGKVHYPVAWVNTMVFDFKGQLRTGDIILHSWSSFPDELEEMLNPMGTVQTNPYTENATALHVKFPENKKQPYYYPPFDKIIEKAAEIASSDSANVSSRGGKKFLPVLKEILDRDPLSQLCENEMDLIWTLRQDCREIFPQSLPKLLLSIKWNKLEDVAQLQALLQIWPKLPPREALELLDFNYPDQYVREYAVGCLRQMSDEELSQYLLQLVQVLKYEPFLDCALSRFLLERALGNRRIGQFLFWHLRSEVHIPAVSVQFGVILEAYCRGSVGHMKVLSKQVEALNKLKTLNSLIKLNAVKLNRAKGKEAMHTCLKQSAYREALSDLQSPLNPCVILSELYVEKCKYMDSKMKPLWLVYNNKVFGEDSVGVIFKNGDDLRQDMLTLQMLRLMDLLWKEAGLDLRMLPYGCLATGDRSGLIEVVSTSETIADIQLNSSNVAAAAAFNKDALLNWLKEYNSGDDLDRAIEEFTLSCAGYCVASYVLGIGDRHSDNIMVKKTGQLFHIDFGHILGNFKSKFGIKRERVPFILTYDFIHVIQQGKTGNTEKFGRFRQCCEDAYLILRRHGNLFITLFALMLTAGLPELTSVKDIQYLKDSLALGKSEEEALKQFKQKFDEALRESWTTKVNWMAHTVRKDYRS
Description: as §1
The target of assay [3] is Phosphatidylinositol 4,5-bisphosphate 3-kinase catalytic subunit gamma isoform (Homo sapiens, UniProt P48736).
Chain of Phosphatidylinositol 4,5-bisphosphate 3-kinase catalytic subunit gamma isoform (P48736 whole entry, canonical isoform): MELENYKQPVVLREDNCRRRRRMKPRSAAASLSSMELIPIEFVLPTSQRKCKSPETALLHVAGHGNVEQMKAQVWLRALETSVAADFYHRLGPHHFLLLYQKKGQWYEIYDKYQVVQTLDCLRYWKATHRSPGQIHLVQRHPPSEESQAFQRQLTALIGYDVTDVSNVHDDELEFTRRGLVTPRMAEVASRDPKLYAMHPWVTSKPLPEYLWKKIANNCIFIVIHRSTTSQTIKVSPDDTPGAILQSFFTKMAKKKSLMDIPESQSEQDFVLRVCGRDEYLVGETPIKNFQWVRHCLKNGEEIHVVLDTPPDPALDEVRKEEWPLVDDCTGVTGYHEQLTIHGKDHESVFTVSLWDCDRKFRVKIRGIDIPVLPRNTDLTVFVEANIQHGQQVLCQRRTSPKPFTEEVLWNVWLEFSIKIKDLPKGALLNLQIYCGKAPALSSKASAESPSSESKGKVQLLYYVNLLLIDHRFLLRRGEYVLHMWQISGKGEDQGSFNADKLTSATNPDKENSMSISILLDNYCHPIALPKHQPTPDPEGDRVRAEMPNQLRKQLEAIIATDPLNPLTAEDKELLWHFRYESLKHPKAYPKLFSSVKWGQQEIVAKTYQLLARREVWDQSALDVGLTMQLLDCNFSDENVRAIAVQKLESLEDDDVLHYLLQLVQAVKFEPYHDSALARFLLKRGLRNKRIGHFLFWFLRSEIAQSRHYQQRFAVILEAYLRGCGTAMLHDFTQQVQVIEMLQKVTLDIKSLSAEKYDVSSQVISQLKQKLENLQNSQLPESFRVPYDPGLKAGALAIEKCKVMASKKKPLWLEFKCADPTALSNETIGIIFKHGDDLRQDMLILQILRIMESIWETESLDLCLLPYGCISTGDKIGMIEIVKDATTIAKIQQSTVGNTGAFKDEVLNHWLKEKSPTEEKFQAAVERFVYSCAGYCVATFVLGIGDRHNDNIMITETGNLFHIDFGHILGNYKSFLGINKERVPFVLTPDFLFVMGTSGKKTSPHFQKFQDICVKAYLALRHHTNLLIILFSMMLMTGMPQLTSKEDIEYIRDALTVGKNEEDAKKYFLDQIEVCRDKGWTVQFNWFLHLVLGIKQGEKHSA
Description: as §1

One may read the IC50 as the concentration that inhibits the measured activity by half.

In the case of `Cc1ncccc1-c1cnc2ccc(-c3ccc4oc(N)nc4c3)cc2n1` [US11547697, Compound 185], the concentration for half-maximal inhibition (IC50) in assay [1], in assay [2] and in assay [3] was above 10 µM each time.
For the compound `Cc1c(-c2ccc3oc(N)nc3c2)ccc2ncc(N3CC(N4CCOCC4)C3)nc12` [US11547697, Compound 383], the IC50 in assay [1], in assay [2] and in assay [3] was above 10 µM each time.
As for `Nc1nc2nc(-c3ccc4ncc(C(=O)N5CCOCC5)n4c3)ccc2o1` [US11547697, Compound 412], the IC50 in assay [1], in assay [2] and in assay [3] was above 10 µM in each case.
For the compound `Nc1nc2cc(-c3ccc4ncc(N5CCN(CC6CC6)CC5=O)nc4c3)ccc2o1` [US11547697, Compound 393], the IC50 in assay [1], in assay [2] and in assay [3] was above 10 µM each time.
For the compound `Nc1nc2cc(-c3cc(F)c4ncc(C(=O)N5CCOCC5)n4c3)ccc2o1` [US11547697, Compound 438], the IC50 in assay [1], in assay [2] and in assay [3] was above 10 µM each time.
Regarding `Nc1nc2cc(-c3ccc4ncc(N5CCOCC5)n4c3)ccc2o1` [US11547697, Compound 53], the 50% inhibitory concentration (IC50) in assay [1], in assay [2] and in assay [3] was above 10 µM throughout.
Take `Nc1nc2cc(-c3ccc4ncn(CCCN5CCOCC5)c(=O)c4c3)ccc2o1` [US11547697, Compound 290]: the 50% inhibitory concentration (IC50) in assay [1], in assay [2] and in assay [3] was above 10 µM each time.
In the case of `Nc1ncc(-c2ccc3ncc(C(=O)N4CCOCC4)n3c2)cc1C(F)(F)F` [US11547697, Compound 410], the concentration for half-maximal inhibition (IC50) in assay [1], in assay [2] and in assay [3] was above 10 µM in each case.
As to `Nc1nc2ccc(-c3cc(F)c4ncc(C(=O)N5CCOCC5)n4c3)cc2o1` [US11547697, Compound 439], the IC50 in assay [1], in assay [2] and in assay [3] was above 10 µM each time.
Take `CN(C)C1CCN(C(=O)c2cnc3ccc(-c4ccc5oc(N)nc5c4)cn23)CC1` [US11547697, Compound 304]: the half-inhibitory concentration (IC50) in assay [1], in assay [2] and in assay [3] was above 10 µM in each case.
As to `CNS(=O)(=O)c1cncc(-c2ccc3ncc(C(=O)N4CCOCC4)n3c2)c1` [US11547697, Compound 450], the IC50 in assay [1], in assay [2] and in assay [3] was above 10 µM in each case.
For `Nc1nc2cc(-c3ccc4ncn(C5CCOCC5)c4c3)ccc2o1` [US11547697, Compound 48], the IC50 in assay [1], in assay [2] and in assay [3] was above 10 µM throughout.
As to `CC1CN(C(=O)c2cnc3ccc(-c4ccc5oc(N)nc5c4)cn23)CC(C)N1` (stereo not drawn) [US11547697, Compound 142], the half-inhibitory concentration (IC50) in assay [1], in assay [2] and in assay [3] was above 10 µM in each case.
For `NC(=O)[C@@H]1CCCN1c1cnc2ccc(-c3ccc4oc(N)nc4c3)cc2n1` [US11547697, Compound 257], the IC50 in assay [1], in assay [2] and in assay [3] was above 10 µM each time.
As to `Nc1cc(-c2ccc3ncc(C(=O)N4CCOCC4)n3c2)cnc1Cl` [US11547697, Compound 415], the IC50 in assay [1], in assay [2] and in assay [3] was above 10 µM each time.
Regarding `CN1CCN(n2cnc3ccc(-c4ccc5oc(N)nc5c4)cc3c2=O)CC1` [US11547697, Compound 446], the 50% inhibitory concentration (IC50) in assay [1], in assay [2] and in assay [3] was above 10 µM throughout.
In the case of `Nc1nc2cc(-c3ccc4ncc(-c5ccnc(N6CCOCC6)c5)nc4c3)ccc2o1` [US11547697, Compound 150], the half-maximal inhibitory concentration (IC50) in assay [1], in assay [2] and in assay [3] was above 10 µM in each case.
`CN1CCN(CCn2cnc3ccc(-c4ccc5oc(N)nc5c4)cc3c2=O)CC1` [US11547697, Compound 280]: the IC50 in assay [1], in assay [2] and in assay [3] was above 10 µM in each case.
Turning to `Cn1c(N2CCOCC2)nc2cc(-c3ccc4oc(N)nc4c3)ccc2c1=O` [US11547697, Compound 80], the 50% inhibitory concentration (IC50) in assay [1], in assay [2] and in assay [3] was above 10 µM throughout.
`Nc1nc2ccc(-c3ccc4nnc(C(=O)N5CCCC5)n4c3)cc2o1` [US11547697, Compound 305]: the IC50 in assay [1], in assay [2] and in assay [3] was above 10 µM each time.
Take `Nc1nsc2cc(-c3ccc4ncc(C(=O)N5CCOCC5)n4c3)ccc12` [US11547697, Compound 489]: the 50% inhibitory concentration (IC50) in assay [1], in assay [2] and in assay [3] was above 10 µM each time.
With `O=C(c1cnc2ccc(-c3cncc(S(=O)(=O)Nc4ccccc4)c3)cn12)N1CCOCC1` [US11547697, Compound 447], the IC50 in assay [1], in assay [2] and in assay [3] was above 10 µM in each case.
In the case of `Nc1nc2cc(-c3ccc4ncn(C5CCC5)c(=O)c4c3)ccc2o1` [US11547697, Compound 205], the IC50 in assay [1], in assay [2] and in assay [3] was above 10 µM each time.
On to `CN1CCN(CCCn2cnc3ccc(-c4ccc5oc(N)nc5c4)cc3c2=O)CC1` [US11547697, Compound 291], for which the IC50 in assay [1], in assay [2] and in assay [3] was above 10 µM each time.
Turning to `COc1ccc(-c2ccc3ncc(C(=O)N4CCOCC4)n3c2)cc1S(=O)(=O)Nc1ccccc1` [US11547697, Compound 444], the 50% inhibitory concentration (IC50) in assay [1], in assay [2] and in assay [3] was above 10 µM each time.
Regarding `CN1CCN(C(=O)c2cnc3ccc(-c4ccc5oc(N)nc5c4)cc3n2)CC1` [US11547697, Compound 157], the concentration for half-maximal inhibition (IC50) in assay [1], in assay [2] and in assay [3] was above 10 µM in each case.
For the compound `O=C(c1cnc2ccc(-c3cnc(Cl)c4[nH]ncc34)cn12)N1CCOCC1` [US11547697, Compound 516], the IC50 in assay [1], in assay [2] and in assay [3] was above 10 µM each time.
For the compound `CN1CCN(c2nc3cc(-c4ccc5oc(N)nc5c4)ccc3c(=O)n2C)CC1` [US11547697, Compound 79], the IC50 in assay [1], in assay [2] and in assay [3] was above 10 µM in each case.
`CCN(CC)CCCn1cnc2ccc(-c3ccc4oc(N)nc4c3)cc2c1=O` [US11547697, Compound 281]: the IC50 in assay [2] and in assay [3] was above 10 µM throughout.
Consider `Nc1nc2cccc(-c3ccc4ncc(C(=O)N5CCOCC5)n4c3)c2s1` [US11547697, Compound 485], for which the IC50 in assay [1], in assay [2] and in assay [3] was above 10 µM in each case.
With `Cc1cc2oc(N)nc2cc1-c1ccc2ncc(N3CC(N4CCOCC4)C3)nc2c1` [US11547697, Compound 353], the IC50 in assay [1], in assay [2] and in assay [3] was above 10 µM in each case.
On to `CN1CCC(c2cnc3ccc(-c4ccc5oc(N)nc5c4)cc3n2)CC1` [US11547697, Compound 385], for which the IC50 in assay [1] and in assay [3] was above 10 µM throughout.
Consider `CN1CCCN(C(=O)c2cnc3ccc(-c4ccc5oc(N)nc5c4)cn23)CC1` [US11547697, Compound 140], for which the IC50 in assay [1] and in assay [3] was above 10 µM throughout.
Take `Nc1nc2cc(-c3ccc4nnc(-c5cccnc5)n4c3)ccc2o1` [US11547697, Compound 300]: the IC50 in assay [1] and in assay [3] was above 10 µM in each case.
In the case of `Nc1nc2ccc(-c3ccc4nnc(-c5cccnc5)n4c3)cc2o1` [US11547697, Compound 301], the IC50 in assay [1] and in assay [3] was above 10 µM in each case.
`CN1CCN(C2CN(C(=O)c3cnc4ccc(-c5ccc6oc(N)nc6c5)cn34)C2)CC1` [US11547697, Compound 303]: the half-maximal inhibitory concentration (IC50) in assay [2] and in assay [3] was above 10 µM throughout.
Regarding `CCN1CCC(n2cnc3ccc(-c4ccc5oc(N)nc5c4)cc3c2=O)CC1` [US11547697, Compound 73], the concentration for half-maximal inhibition (IC50) in assay [1] and in assay [3] was above 10 µM each time.
In the case of `CNc1nc2cc(-c3ccc4ncc(C(=O)N5CCOCC5)n4c3)ccc2o1` [US11547697, Compound 406], the IC50 in assay [1] and in assay [3] was above 10 µM throughout.
As for `Nc1nc2cc(-c3ccc4ncc(N5CC(N6CCOCC6)C5)nc4c3)c(Cl)cc2o1` [US11547697, Compound 371], the half-inhibitory concentration (IC50) in assay [1] and in assay [3] was above 10 µM in each case.
